Structures can show the parent of a compound that is named as a salt.
Legend:
SB.mhdgc-1 [1] = assay: area under the dose-response curve of % viability (trapezoidal, 11 doses) (% viability x log10 concentration); higher = less cytotoxic; conditions: SB.mhdgc-1 (hereditary c.1380delA CDH1 gastric cancer)
Summary of the method: (§1)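 Compound in DMSO was pinned (23 nL) at 11 threefold-diluted concentrations into wells containing 500 patient-derived gastric cancer cells, hereditary or sporadic, in 5 μL medium per 1536 well. Cells were incubated for 48 h, then exposed to CellTiter-Glo for 30 min at room temperature. Luminescence was measured on a ViewLux. The values are viability normalised to DMSO, either at the highest concentration or as trapezoidal area under the curve.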

SB.msgc-1 [2] = assay: as above; conditions: SB.msgc-1 (sporadic gastric cancer)
Summary of the method: as §1

SB.mhdgc-1 [3] = assay: viability at highest tested concentration (MAXR) relative to DMSO; higher = less cytotoxic; conditions: SB.mhdgc-1 (hereditary c.1380delA CDH1 gastric cancer)
Summary of the method: as §1

SB.msgc-1 [4] = assay: as above; conditions: SB.msgc-1 (sporadic gastric cancer)
Summary of the method: as §1

SMILES	area under the dose-response curve (SB.mhdgc-1 [1])	area under the dose-response curve (SB.msgc-1 [2])	viability (SB.mhdgc-1 [3])	viability (SB.msgc-1 [4])
COC1=CC2=C(C=C1CC3=C(F)C(=CC=C3)Cl)C(=O)\C(=C/N2[C@H](CO)C(C)C)C(O)=O [Elvitegravir] (top concentration 46.0829 µM)	559	512	69.1%	48.4%
CCCCCCCCCCCC/1=C(O)/C(=O)/C=C(O)\C1=O [Embelin] (top concentration 46.0829 µM)	395	393	38.3%	27.6%
CC[C@H]1CN2CCc3cc(OC)c(OC)cc3[C@@H]2C[C@@H]1C[C@H]1NCCc2cc(OC)c(OC)cc21 [Emetine] (top concentration 46.0829 µM)	393	390	25.4%	51.9%
Cc1cc(O)c2c(c1)C(=O)c1cc(O)cc(O)c1C2=O [Emodin] (top concentration 46.0829 µM)	548	546	80.4%	88.6%
C[C@H](NC(=O)C(=O)Nc1ccccc1C(C)(C)C)C(=O)N[C@@H](CC(=O)O)C(=O)COc1c(F)c(F)cc(F)c1F [Emricasan] (top concentration 46.0829 µM)	537	574	105%	84.6%
NC/1=N/C(=O)N(/C=C1F)[C@H]2CS[C@H](CO)O2 [Emtricitabine] (top concentration 46.0829 µM)	534	520	112%	120%
CCOC(=O)[C@H](CCc1ccccc1)N[C@@H](C)C(=O)N1CCC[C@H]1C(=O)O [Enalapril maleate] (top concentration 46.0829 µM)	504	577	73%	82.3%
CC/C(=C(/c1ccc(O)cc1)c1ccc(OCCNC)cc1)c1ccccc1 [Endoxifen] (top concentration 46.0829 µM)	352	522	4.91%	34.5%
CCN1\C=C(\C(O)=O)C(=O)C2=C1N=C(N3CCNCC3)C(=C2)F [Enoxacin] (top concentration 46.0829 µM)	397	414	65.9%	80.9%
CC1(C)[C@@H](O)CC[C@@]2(C)[C@H]1CC[C@]3(C)[C@@H]2C(=O)\C=C/4[C@@H]5C[C@](C)(CC[C@]5(C)CC[C@@]34C)C(O)=O [Enoxolone] (top concentration 46.0829 µM)	505	565	57.4%	98.3%
NC/1=N/C(=O)C2=C(N1)[N](C=N2)[C@@H]3C[C@H](O)[C@@H](CO)C3=C [Entecavir] (top concentration 46.0829 µM)	512	494	40.3%	58.3%
Nc1ccccc1NC(=O)c1ccc(CNC(=O)OCc2cccnc2)cc1 [Entinostat] (top concentration 46.0829 µM)	506	390	44.9%	11%
C[N]1C=C(C2=CC=CC=C12)\C3=C(\C(=O)NC3=O)C4=C[N](C5CCN(CC5)CC6=NC=CC=C6)C7=C4C=CC=C7 [Enzastaurin] (top concentration 46.0829 µM)	447	486	37.4%	31.4%
CC(/C=C1\SC(=S)N(CC(=O)O)C1=O)=C\c1ccccc1 [Epalrestat] (top concentration 46.0829 µM)	499	565	84.9%	104%
CNC[C@H](O)c1ccc(O)c(O)c1 [Epinephrine] (top concentration 92.1659 µM)	484	514	20.7%	78.5%
COc1cccc2c1C(=O)c1c(O)c3c(c(O)c1C2=O)C[C@@](O)(C(=O)CO)C[C@@H]3O[C@H]1C[C@H](N)[C@@H](O)[C@H](C)O1 [Epirubicin hydrochloride] (top concentration 46.0829 µM)	353	390	24.7%	36.3%
COC(=O)[C@@H]1CC2=CC(=O)CC[C@]2(C)[C@@]23O[C@@H]2C[C@@]2(C)[C@@H](CC[C@@]24CCC(=O)O4)[C@H]13 [Eplerenone] (top concentration 46.0829 µM)	555	524	127%	111%
C/C(=C\c1csc(C)n1)[C@@H]1C[C@@H]2O[C@@H]2CCC[C@H](C)[C@H](O)[C@@H](C)C(=O)C(C)(C)[C@@H](O)CC(=O)O1 [Epothilone A] (top concentration 46.0829 µM)	246	256	52.1%	42.9%
C/C(=C\c1csc(C)n1)[C@@H]1C[C@@H]2O[C@]2(C)CCC[C@H](C)[C@H](O)[C@@H](C)C(=O)C(C)(C)[C@@H](O)CC(=O)O1 [Epothilone B] (top concentration 46.0829 µM)	245	217	33.9%	46.2%
O=C(O)CSCC(=O)NC1CCSC1=O (configuration not stated) [Erdosteine] (top concentration 46.0829 µM)	591	547	143%	112%
CC(C)C(C)/C=C/C(C)C1CCC2C3=CC=C4CC(O)CCC4(C)C3CCC21C (configuration not stated) [Ergosterol] (top concentration 46.0829 µM)	512	521	96.5%	97.5%
C#Cc1cccc(Nc2ncnc3cc(OCCOC)c(OCCOC)cc23)c1 [Erlotinib hydrochloride] (top concentration 46.0829 µM)	379	388	33.1%	22.1%

SMILES	area under the dose-response curve (SB.mhdgc-1 [1])	area under the dose-response curve (SB.msgc-1 [2])	viability (SB.mhdgc-1 [3])	viability (SB.msgc-1 [4])
Oc1ccc([C@@H]2Oc3ccc(O)cc3[C@@H]3CCC[C@@H]32)cc1 [Erteberel] (top concentration 46.0829 µM)	492	278	16.6%	12.8%
CC[C@H]1OC(=O)[C@H](C)[C@@H](O[C@H]2C[C@@](C)(OC)[C@@H](O)[C@H](C)O2)[C@H](C)[C@@H](O[C@@H]2O[C@@H](C)C[C@H](N(C)C)[C@H]2O)[C@](C)(O)C[C@@H](C)C(=O)[C@H](C)[C@@H](O)[C@]1(C)O [Erythromycin] (top concentration 46.0829 µM)	445	515	91%	80.6%
C[C@]12CC[C@@H]3c4ccc(O)cc4CC[C@H]3[C@@H]1[C@@H](O)[C@@H](O)[C@@H]2O [Estetrol] (top concentration 46.0829 µM)	439	549	7.6%	78.6%
C[C@]12CC[C@@H]3c4ccc(O)cc4CC[C@H]3[C@@H]1CC[C@@H]2O [Estradiol] (top concentration 46.0829 µM)	565	462	74.8%	20.5%
C[C@]12CC[C@@H]3c4ccc(O)cc4CC[C@H]3[C@@H]1C[C@@H](O)[C@@H]2O [Estriol] (top concentration 46.0829 µM)	513	517	106%	91%
C[C@]12CCC3c4ccc(O)cc4CCC3C1CCC2=O (some centres not stated) [Estrone] (top concentration 46.0829 µM)	449	522	87.7%	103%
C#C[C@]1(O)CC[C@H]2[C@@H]3CCc4cc(O)ccc4[C@H]3CC[C@@]21C [Ethinylestradiol] (top concentration 46.0829 µM)	496	290	3.31%	2.36%
CCc1cc(C(N)=S)ccn1 [Ethionamide] (top concentration 46.0829 µM)	565	540	129%	108%
CC\12CCC(=O)\C=C1CCC3C2CCC4(C)C3CCC4(O)C#C (configuration not stated) [Ethisterone] (top concentration 46.0829 µM)	444	499	67.7%	92.5%
CCC1(C)CC(=O)NC1=O (configuration not stated) [Ethosuximide] (top concentration 46.0829 µM)	499	537	100%	111%
CCc1cccc2c3c([nH]c12)C(CC)(CC(=O)O)OCC3 (configuration not stated) [Etodolac] (top concentration 46.0829 µM)	580	462	98.9%	89.3%
CCOC(=O)c1cncn1[C@H](C)c1ccccc1 [Etomidate] (top concentration 46.0829 µM)	593	533	107%	90.1%
COc1cc([C@@H]2c3cc4c(cc3[C@@H](O[C@@H]3O[C@@H]5CO[C@@H](C)O[C@H]5[C@H](O)[C@H]3O)[C@H]3COC(=O)[C@H]23)OCO4)cc(OC)c1O [Etoposide] (top concentration 46.0829 µM)	264	400	30.1%	41.2%
CO[C@H]1C[C@@H]2CC[C@@H](C)[C@@](O)(O2)C(=O)C(=O)N2CCCC[C@H]2C(=O)O[C@H]([C@H](C)C[C@@H]2CC[C@@H](OCCO)[C@H](OC)C2)CC(=O)[C@H](C)/C=C(/C)[C@@H](O)[C@@H](OC)C(=O)[C@H](C)C[C@H](C)\C=C/C=C\C=C/1C [Everolimus] (top concentration 46.0829 µM)	356	466	41%	79.6%
CN1c2ccccc2C(=O)N2CCc3c([nH]c4ccccc34)C21 (configuration not stated) [Evodiamine] (top concentration 46.0829 µM)	546	531	58.1%	65%
C[C@]12CC[C@H]3[C@@H](CC(=C)\C4=C\C(=O)\C=C/[C@]34C)[C@@H]1CCC2=O [Exemestane] (top concentration 46.0829 µM)	526	523	73.9%	72.6%
CCOC(=O)[C@@H](N)CCC(=O)N[C@@H](CSCc1ccccc1)C(=O)N[C@@H](C(=O)OCC)c1ccccc1 [Ezatiostat] (top concentration 46.0829 µM)	433	476	4.09%	41.6%
O=C1C(CCC(O)c2ccc(F)cc2)C(c2ccc(O)cc2)N1c1ccc(F)cc1 (configuration not stated) [Ezetimibe] (top concentration 46.0829 µM)	534	534	103%	94.6%
CCC(=O)N[C@H]1CC[C@H](C(=O)N(C)c2ccc(-c3nc4ccccc4o3)cc2)C1 [FASN BI] (top concentration 46.0829 µM)	402	370	24.3%	27.6%
COC1=CC=CC=C1C2=CC=CC(=C2)C/3=C(O)/C4=CC(=C(Cl)C=C4NC3=O)C#N [FASN MRK] (top concentration 92.1659 µM)	516	585	73.3%	69.7%
Cc1nc(C(=O)NCC(=O)O)c(O)c2ccc(Oc3ccccc3)cc12 [FG-4592] (top concentration 46.0829 µM)	513	580	86.4%	98.3%
